Source: publication PMC4483659, “Amino Acid-Derived Metabolites from the Ascidian Aplidium sp” (Marine Drugs, 2015)
In brackets after ≈: the same amount, converted by molar mass. Where two headings read alike, the source gives them in different places.

What was measured:
K562 leukemia cell-line = experiment: Cytotoxicity, K562 leukemia cell-line; type: cell-based; conditions: Homo sapiens
Method: (§1) The cytotoxicity assays were performed in accordance with the literature protocols. The Na^+/K^+-ATPase, isocitrate lyase, and sortase A inhibition assays were performed according to previously described methods. The antimicrobial assays were performed according to the method described previously.

[1] = tested on: A549 lung cancer cell-line; experiment: Cytotoxicity, A549 lung cancer cell-line; type: cell-based; conditions: Homo sapiens
Method: as §1

[2] = tested on: MRC5 human lung fibroblast cell-line; experiment: Cytotoxicity, MRC5 normal cell-line; type: cell-based
Method: as §1

Na^+/K^+-ATPase = experiment: Na+/K+-ATPase inhibition assay; type: biochemical; conditions: enzyme inhibition
Method: as §1

[3] = tested on: Staphylococcus aureus (ATCC 6538p); experiment: Antibacterial assay, S. aureus; type: cell-based; conditions: ATCC6538P, read-out: MIC, A: Staphylococcus aureus
Method: as §1

[4] = tested on: Bacillus subtilis (ATCC 6633); experiment: Antibacterial assay, B. subtilis; type: cell-based
Method: as §1

[5] = tested on: Micrococcus luteus (IFO 12708); experiment: Antibacterial assay, M. luteus; type: cell-based
Method: as §1

[6] = tested on: Salmonella typhimurium (ATCC 14028); experiment: Antibacterial assay, S. typhimurium; type: cell-based; conditions: Salmonella enterica, read-out: MIC, D: Salmonella typhimurium
Method: as §1

[7] = tested on: Proteus vulgaris (ATCC 3851); experiment: Antibacterial assay, P. vulgaris; type: cell-based
Method: as §1

[8] = tested on: Escherichia coli (ATCC 35270); experiment: Antibacterial assay, E. coli; type: cell-based
Method: as §1

sortase A = sortase A (Staphylococcus aureus, UniProt Q2FV99); experiment: Sortase A inhibition assay; type: biochemical
Sequence of sortase A (Q2FV99 whole entry): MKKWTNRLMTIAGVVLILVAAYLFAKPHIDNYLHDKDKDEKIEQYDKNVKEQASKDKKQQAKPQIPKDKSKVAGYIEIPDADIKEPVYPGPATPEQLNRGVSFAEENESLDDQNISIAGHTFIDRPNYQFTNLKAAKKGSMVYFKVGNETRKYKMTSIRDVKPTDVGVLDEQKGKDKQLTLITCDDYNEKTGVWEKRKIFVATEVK
Method: as §1

[9] = K562 leukemia cell-line cytotoxicity, read-out: IC50, K562
[10] = A549 lung cancer cell-line cytotoxicity, read-out: IC50, A549
[11] = MRC5 human lung fibroblast (normal) cell-line cytotoxicity, read-out: IC50, MRC5
[12] = ATCC6633, Gram(+), ATCC 6633, read-out: MIC, B: Bacillus subtilis
[13] = IFO12708, Gram(+), IFO 12708, read-out: MIC, C: Micrococcus luteus
[14] = ATCC3851, Gram(−), ATCC 3851, read-out: MIC, E: Proteus vulgaris
[15] = ATCC35270, Gram(−), ATCC 35270, read-out: MIC, F: Escherichia coli

SMILES | IC50 (K562 leukemia cell-line; [9]) [µM] | IC50 [1, 10] [µM] | IC50 [2, 11] [µM] | IC50 (Na^+/K^+-ATPase) [µM] | MIC ([3]; Gram(+), ATCC 6538p) [mg/L] | MIC [4, 12] [mg/L] | MIC [5, 13] [mg/L] | MIC ([6]; Gram(−), ATCC 14028) [mg/L] | MIC [7, 14] [mg/L] | MIC [8, 15] [mg/L] | IC50 (sortase A) [µM] | further results
COc1c(I)cc(C[C@@H](C(=O)NCCc2ccccc2)N(C)C)cc1I [Compound 2, apliamide B] | 21.1 | 10.8 | 73.7 | > 200 | > 100 | > 100 | > 100 | > 100 | > 100 | > 100 | > 300 | –
CC1(C)S[C@@H]2[C@H](NC(=O)[C@H](N)c3ccccc3)C(=O)N2[C@H]1C(=O)O [Ampicillin, reference compound] | – | – | – | – | 0.4 (≈ 1.14 µM) | 0.4 (≈ 1.14 µM) | 0.4 (≈ 1.14 µM) | 0.4 (≈ 1.14 µM) | 0.8 (≈ 2.29 µM) | 6.3 (≈ 18 µM) | – | –
CN[C@@H](Cc1cc(I)c(OC)c(I)c1)C(=O)NCCc1ccccc1 [Compound 1, apliamide A] | 14.3 | > 100 | 59.2 | 163 | > 100 | > 100 | > 100 | > 100 | > 100 | > 100 | > 300 | –
COc1ccc(CCNC(=O)[C@H](Cc2cc(I)c(OC)c(I)c2)N(C)C)cc1I [Compound 3, apliamide C] | 10.4 | 13.4 | > 100 | > 200 | > 100 | > 100 | > 100 | > 100 | > 100 | > 100 | > 300 | –
COc1c(I)cc(/C=C/C(=O)NCCc2ccccc2)cc1I [Compound 4, apliamide D] | 18.2 | > 100 | > 100 | 3.2 | > 100 | > 100 | > 100 | > 100 | > 100 | > 100 | > 300 | –
CN(C)[C@@H](Cc1c[nH]c2cc(Br)ccc12)C(=O)NCCc1ccccc1 [Compound 5, apliamide E] | 7.8 | 22.8 | 37 | > 200 | > 100 | > 100 | > 100 | > 100 | > 100 | > 100 | > 300 | –
O=C(O)c1cc[c]([Hg][OH])cc1 [pHMB, para-Hydroxymercuribenzoic acid, reference compound] | – | – | – | – | – | – | – | – | – | – | – | IC50 (sortase A; sortase A inhibition, read-out: IC50, Srt A): 109 µM
COc1cccc2c1C(=O)c1c(O)c3c(c(O)c1C2=O)C[C@@](O)(C(=O)CO)C[C@@H]3O[C@H]1C[C@H](N)[C@H](O)[C@H](C)O1 [Doxorubicin, reference compound] | 1.2 | 1.4 | 9.8 | – | – | – | – | – | – | – | – | –
COc1c(I)cc(CCN(C)C)cc1I [Compound 6, apliamine A] | – | – | – | 189 | – | – | – | – | – | – | > 300 | IC50 (K562 leukemia cell-line; K562, read-out: IC50, K562): 19.7 µM; IC50 ([1]; A549, read-out: IC50, A549): 8.3 µM; IC50 ([2]; Homo sapiens, MRC5, read-out: IC50, MRC5): > 100 µM; MIC [3]: > 100 mg/L; MIC ([4]; ATCC6633, read-out: MIC, B: Bacillus subtilis): > 100 mg/L; MIC ([5]; IFO12708, read-out: MIC, C: Micrococcus luteus): > 100 mg/L; MIC [6]: > 100 mg/L; MIC ([7]; ATCC3851, read-out: MIC, E: Proteus vulgaris): > 100 mg/L; MIC ([8]; ATCC35270, read-out: MIC, F: Escherichia coli): > 100 mg/L
